Measurements reported in patent US10774064B2 (Cadent Therapeutics, Inc., priority 2016, dated 2020).

What follows are compounds tested against T1, small-conductance Ca2+-activated K+ channels (SK channels, subtype 2) (Homo sapiens, UniProt Q9H2S1) (assay: whole-cell patch-clamp of ionic current through SK2 channels in HEK293 cells (SC100)). Conditions: whole-cell patch-clamp, HEK293 cells expressing SK2 channels; concentration that increases the basal current by 100%.
T1 construct: expressed in transfected cells; host or cells: HEK293
Type: cell-based
Summary of the method: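 Whole-cell patch-clamp recording of current in HEK293 cells expressing SK2 channels. SC100 is the compound concentration that increases basal current by 100%.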

Row | SMILES | SC100 (μM)
1 | Cc1ccn(-c2cc(C(F)F)cc(NC3CCC(F)(F)CC3)n2)n1 [NSSy5839, N-(4,4-difluorocyclohexyl)-4-(difluoromethyl)-6-(3-methyl-1H-pyrazol-1-yl)pyridin-2-amine] | ++ (++ means 200 nM-1000 nM)
2 | Cc1ccn(-c2cc(C(C)(C)O)cc(NC3CCC(F)(F)CC3)n2)n1 [NSSy5846] | ++ (++ means 200 nM-1000 nM)
3 | N#Cc1ccn(-c2nc(NC3CCC(F)(F)CC3)cc(N3CC4(COC4)C3)n2)n1 [NSSy5847] | + (+ means >1 uM)
4 | N#CCc1ccn(-c2nc(NC3CCC(F)(F)CC3)cc(N3CC4(COC4)C3)n2)n1 [NSSy5848] | + (+ means >1 uM)
5 | COC(=O)N1CC(Oc2cc(NC3CC=C(C)CC3)nc(-c3nc(C)cs3)n2)C1 (stereo not drawn) [NSSy5854, methyl 3-((6-((4-methylcyclohex-3-en-1-yl)amino)-2-(4-methylthiazol-2-yl)pyrimidin-4-yl)oxy)azetidine-1-carboxylate] | ++ (++ means 200 nM-1000 nM)
6 | COC(=O)N1CC(Oc2cc(NC3CCC(F)(F)CC3)nc(-c3nc(C)ns3)n2)C1 [NSSy5857] | ++ (++ means 200 nM-1000 nM)
7 | COCc1cc(NC2CCC(F)(F)CC2)nc(-n2ccc(C)n2)c1 [NSSy5860] | ++ (++ means 200 nM-1000 nM)
8 | Cc1ccn(-c2cc(COc3ncc(F)cn3)cc(NC3CCC(F)(F)CC3)n2)n1 [NSSy5861] | ++ (++ means 200 nM-1000 nM)
9 | COC(=O)N1CC(Oc2nc(-c3nc(C)cs3)nc(NC3CCC(F)(F)CC3)c2Br)C1 [NSSy5868, methyl 3-((5-bromo-6-((4,4-difluorocyclohexyl)amino)-2-(4-methylthiazol-2-yl)pyrimidin-4-yl)oxy)azetidine-1-carboxylate] | +++ (+++ means <200 nM)
10 | Cc1ccn(-c2nc(NC3CCC(F)(F)CC3)cc(OC3CC(O)C3)n2)n1 (stereo not drawn) [NSSy5879, 3-((6-((4,4-difluorocyclohexyl)amino)-2-(3-methyl-1H-pyrazol-1-yl)pyrimidin-4-yl)oxy)cyclobutan-1-ol] | ++ (++ means 200 nM-1000 nM)
11 | COC(=O)N1CC(Oc2cc(NC3CCC(F)(F)CC3)nc(-c3nc(C)no3)n2)C1 [NSSy5887, methyl 3-((6-((4,4-difluorocyclohexyl)amino)-2-(3-methyl-1,2,4-oxadiazol-5-yl)pyrimidin-4-yl)oxy)azetidine-1-carboxylate] | + (+ means >1 uM)
12 | Cc1ccn(-c2nc(NC3CCC(F)(F)CC3)cc(OC3CC(F)(F)C3)n2)n1 [NSSy5893, 6-(3,3-difluorocyclobutoxy)-N-(4,4-difluorocyclohexyl)-2-(3-methyl-1H-pyrazol-1-yl)pyrimidin-4-amine] | ++ (++ means 200 nM-1000 nM)
13 | Cc1ccn(-c2nc(NC3CCC(F)(F)CC3)cc(OC3CC(C)(O)C3)n2)n1 (stereo not drawn) [NSSy5902, 3-((6-((4,4-difluorocyclohexyl)amino)-2-(3-methyl-1H-pyrazol-1-yl)pyrimidin-4-yl)oxy)-1-methylcyclobutan-1-ol] | ++ (++ means 200 nM-1000 nM)
14 | COCc1cc(NC2CCC(F)(F)CC2)nc(-c2nc(C)cs2)c1 [NSSy5933, N-(4,4-difluorocyclohexyl)-4-(methoxymethyl)-6-(4-methylthiazol-2-yl)pyridin-2-amine] | ++ (++ means 200 nM-1000 nM)
15 | COC(=O)N1CC(Oc2cc(NC3CCC(F)(F)CC3)cc(-n3ccc(C)n3)c2)C1 [NSSy5934, methyl 3-(3-((4,4-difluorocyclohexyl)amino)-5-(3-methyl-1H-pyrazol-1-yl)phenoxy)azetidine-1-carboxylate] | + (+ means >1 uM)
16 | Cc1noc(-c2cc(N3CCOCC3)cc(NC3CCC(F)(F)CC3)n2)n1 [NSSy5957] | + (+ means >1 uM)
17 | COC(=O)N1CC(Oc2cc(NC3CCC(F)(F)CC3)nc(-c3nc(C)no3)c2)C1 [NSSy5959] | + (+ means >1 uM)
18 | COC(=O)N1CC(Oc2cc(NC3CCC(F)(F)CC3)cc(-c3nc(C)cs3)c2)C1 [NSSy5972, methyl 3-(3-((4,4-difluorocyclohexyl)amino)-5-(4-methylthiazol-2-yl)phenoxy) azetidine-1-carboxylate] | + (+ means >1 uM)
19 | COC(=O)N1CC(Oc2cc(NC3CC=C(C)CC3)nc(-c3nc(C)cs3)c2)C1 (stereo not drawn) [NSSy5980, methyl 3-((2-((4-methylcyclohex-3-en-1-yl)amino)-6-(4-methylthiazol-2-yl)pyridin-4-yl)oxy)azetidine-1-carboxylate] | ++ (++ means 200 nM-1000 nM)
20 | Cc1ccn(-c2cc(COc3ccc(F)cn3)cc(NC3CCC(F)(F)CC3)n2)n1 [NSSy5996] | ++ (++ means 200 nM-1000 nM)
21 | Cc1csc(-c2nc(NC3CCC(F)(F)CC3)cc(OC3CCCn4nncc43)n2)n1 (stereo not drawn) [NSSy6007] | ++ (++ means 200 nM-1000 nM)
22 | Cc1ccn(-c2cc(CN3CCCC3=O)cc(NC3CCC(F)(F)CC3)n2)n1 [NSSy6019, 1-((2-((4,4-difluorocyclohexyl)amino)-6-(3-methyl-1H-pyrazol-1-yl)pyridin-4-yl)methyl)pyrrolidin-2-one] | ++ (++ means 200 nM-1000 nM)
23 | Cc1cc(CN2CCC(F)(F)CC2)cc(-c2nc(C)cs2)c1 [NSSy6044, 2-(3-((4,4-difluoropiperidin-1-yl)methyl)-5-methylphenyl)-4-methyl thiazole] | + (+ means >1 uM)
24 | [2H]c1c(NC2CCC(F)(F)CC2)nc(-c2nc(C)cs2)nc1OC1CN(C(=O)OC)C1 [NSSy6045, methyl 3-((6-((4,4-difluorocyclohexyl)amino)-2-(4-methylthiazol-2-yl)pyrimidin-4-yl-5-d)oxy) azetidine-1-carboxylate] | + (+ means >1 uM)

Row | SMILES | SC100 (μM)
25 | COC(=O)N1CC(Oc2cc(NC3CCC(F)(F)CC3)nc(-c3nc(CO)cs3)n2)C1 [NSSy6049, methyl 3-((6-((4,4-difluorocyclohexyl)amino)-2-(4-(hydroxymethyl)thiazol-2-yl)pyrimidin-4-yl)oxy)azetidine-1-carboxylate] | + (+ means >1 uM)
26 | COC(=O)N1CC(Oc2cc(NC3CCC(F)(F)CC3)nc(N3CCCC3)n2)C1 [NSSy6054] | + (+ means >1 uM)
27 | CC(=O)N1CCN(c2cc(NC3CCC(F)(F)CC3)nc(-c3nc(C)cs3)n2)CC1 [NSSy6055] | +++ (+++ means <200 nM)
28 | Cc1csc(-c2nccc(NC3CCC(F)(F)CC3)n2)n1 [NSSy6056, N-(4,4-difluorocyclohexyl)-2-(4-methylthiazol-2-yl)pyrimidin-4-amine] | ++ (++ means 200 nM-1000 nM)
29 | COC(=O)N1CC(Oc2ccnc(-c3nc(C)cs3)n2)C1 [NSSy6057] | + (+ means >1 uM)
30 | COC(=O)N1CC(Oc2cc(NC3CCC(F)(F)CC3)ncn2)C1 [NSSy6061, methyl 3-((6-((4,4-difluorocyclohexyl)amino)pyrimidin-4-yl)oxy) azetidine-1-carboxylate] | + (+ means >1 uM)
31 | Cc1csc(-c2nc(NC3CCC(F)(F)CC3)cc(N3CCS(=O)(=O)CC3)n2)n1 [NSSy6062] | +++ (+++ means <200 nM)
32 | Cc1cnc(-c2nc(NC3CCC(F)(F)CC3)cc(N3CCOCC3)n2)s1 [NSSy6067, N-(4,4-difluorocyclohexyl)-2-(5-methylthiazol-2-yl)-6-morpholinopyrimidin-4-amine] | + (+ means >1 uM)
33 | COC(=O)N1CC(Oc2cc(NC3CCC(F)(F)CC3)[n+]([O-])c(-n3ccc(C)n3)n2)C1 [NSSy6072, 6-((4,4-difluorocyclohexyl)amino)-4-((1-(methoxycarbonyl)azetidin-3-yl)oxy)-2-(3-methyl-1H-pyrazol-1-yl)pyrimidine 1-oxide] | + (+ means >1 uM)
34 | COC(=O)N1CC(Oc2cc(NC3CCC(C(F)(F)F)CC3)nc(-c3nc(C)cs3)n2)C1 (stereo not drawn) [NSSy6078, methyl 3-((2-(4-methylthiazol-2-yl)-6-((4-(trifluoromethyl)cyclohexyl)amino)pyrimidin-4-yl)oxy) azetidine-1-carboxylate] | + (+ means >1 uM)
35 | Cc1csc(-c2nc(O)cc(NC3CCC(F)(F)CC3)n2)n1 [NSSy6082, 6-((4,4-difluorocyclohexyl)amino)-2-(4-methylthiazol-2-yl)pyrimidin-4-ol] | + (+ means >1 uM)
36 | COC(=O)N1CC(Oc2cc(NC3C4CC5CC(C4)CC3C5)nc(-n3ccc(C)n3)n2)C1 (stereo not drawn) [NSSy6091] | ++ (++ means 200 nM-1000 nM)
37 | Cc1csc(-c2nc(NC3CCC(F)(F)CC3)cc(N3CCN(C)C(=O)C3)n2)n1 [NSSy6093] | ++ (++ means 200 nM-1000 nM)
38 | COC(=O)N1CC(Oc2cc(NC34CC5CC(CC(C5)C3)C4)nc(-n3ccc(C)n3)n2)C1 [NSSy6097] | +++ (+++ means <200 nM)
39 | COC(=O)N1CC(Oc2cc(NC3CCCCC3)nc(-c3nc(C)cs3)n2)C1 [NSSy6099] | +++ (+++ means <200 nM)
40 | COCC1CN(c2cc(NC3CCCCC3)nc(-c3nc(C)cs3)n2)CCO1 (stereo not drawn) [NSSy6100] | ++ (++ means 200 nM-1000 nM)
41 | COC(=O)N1CC(Oc2cc(N(C)C3CCC(F)(F)CC3)nc(-c3nc(C)cs3)n2)C1 [NSSy6105, methyl 3-((6-((4,4-difluorocyclohexyl) (methyl)amino)-2-(4-methylthiazol-2-yl)pyrimidin-4-yl)oxy) azetidine-1-carboxylate] | + (+ means >1 uM)
42 | Cc1ccn(-c2nc(NC3CCC(F)(F)CC3)cc(N3CCS(=O)(=O)CC3)n2)n1 [NSSy6111] | ++ (++ means 200 nM-1000 nM)
43 | COC[C@H]1CN(c2cc(NC3CCCCC3)nc(-c3nc(C)cs3)n2)CCO1 [NSSy6115] | ++ (++ means 200 nM-1000 nM)
44 | Cc1csc(-c2nc(NC3CCC(F)(F)CC3)cc(N3CC4CC3CO4)n2)n1 (stereo not drawn) [NSSy6116] | ++ (++ means 200 nM-1000 nM)
45 | COC[C@@H]1CN(c2cc(NC3CCCCC3)nc(-c3nc(C)cs3)n2)CCO1 [NSSy6124] | ++ (++ means 200 nM-1000 nM)
46 | Cc1nsc(-c2nc(NC3CCC(F)(F)CC3)cc(N3CCS(=O)(=O)CC3)n2)n1 [NSSy6125] | ++ (++ means 200 nM-1000 nM)
47 | COC(=O)N1CC(Oc2cc(N3CC4(CCCCC4)C3)nc(-c3nc(C)cs3)n2)C1 [NSSy6126] | + (+ means >1 uM)
48 | COC(=O)N1CC(Oc2cc(NC3C4CC3C4)nc(-n3ccc(C)n3)n2)C1 (stereo not drawn) [NSSy6127] | + (+ means >1 uM)
